Experimental data published in paper PMC9687610, “Adenosine-Mimicking Derivatives of 3-Aminopyrazine-2-Carboxamide: Towards Inhibitors of Prolyl-tRNA Synthetase with Antimycobacterial Activity” (Biomolecules, 2022).
Converted amounts (≈) assume the structure as drawn. Where two headings read alike, the source gives them in different places.

Key:
[1] = test system: Mycobacterium tuberculosis H37Ra ITM-M006710 (ATCC 9431); assay: Microplate Alamar Blue Assay (MABA), Mtb H37Ra; type: cell-based; conditions: Mycobacterium tuberculosis, 120 h, pH 6.6, MABA, Middlebrook 7H9 broth pH 6.6, resazurin after 120 h; read-out: Mtb H37Ra MIC
[2] = test system: Mycobacterium smegmatis DSM 43465 (ATCC 607); assay: Microplate Alamar Blue Assay (MABA), M. smegmatis; type: cell-based; conditions: for MIC: Mycolicibacterium smegmatis, read-out: M. smegmatis MIC
[3] = test system: M. aurum DSM 43999 (ATCC 23366); assay: Microplate Alamar Blue Assay (MABA), M. aurum; type: cell-based; conditions: Mycolicibacterium aurum; MABA, resazurin after 72 h; read-out: M. aurum MIC
[4] = test system: Mycobacterium tuberculosis H37Rv CNCTC My 331/88 (ATCC 27294); assay: MABA microdilution, Mtb H37Rv; type: cell-based; conditions: for MIC: Mycobacterium tuberculosis, read-out: Mtb H37Rv MIC; for activity on Mtb H37Rv and both MDR strains (in words): virulent strain Mtb H37Rv and MDR isolates IZAK, MATI
[5] = test system: Enterococcus faecalis CCM 4224 (ATCC 29212); assay: Antibacterial microdilution broth (EUCAST), EF; type: cell-based; conditions: Enterococcus faecalis
[6] = test system: Staphylococcus aureus subsp. aureus CCM 4223 (ATCC 29213); assay: Antibacterial microdilution broth (EUCAST), SA; type: cell-based; conditions: Staphylococcus aureus; read after 24 h; read-out: SA MIC
[7] = test system: Staphylococcus aureus subsp. aureus methicillin-resistant (MRSA) CCM 4750 (ATCC 43300); assay: Antibacterial microdilution broth (EUCAST), MRSA; type: cell-based; conditions: Staphylococcus aureus; read after 24 h; read-out: MRSA MIC
[8] = test system: Staphylococcus epidermidis CCM 4418 (ATCC 12228); assay: Antibacterial microdilution broth (EUCAST), SE; type: cell-based; conditions: read after 24 h, read-out: SE MIC
[9] = test system: Escherichia coli CCM 3954 (ATCC 25922); assay: Antibacterial microdilution broth (EUCAST), EC; type: cell-based; conditions: Escherichia coli; read after 24 h; read-out: EC MIC
[10] = test system: Acinetobacter baumannii DSM 30007 (ATCC 19606); assay: Antibacterial microdilution broth (EUCAST), ACI; type: cell-based; conditions: Acinetobacter baumannii; read after 24 h; read-out: ACI MIC
[11] = test system: Pseudomonas aeruginosa CCM 3955 (ATCC 27853); assay: Antibacterial microdilution broth (EUCAST), PA; type: cell-based; conditions: Pseudomonas aeruginosa; read after 24 h; read-out: PA MIC
[12] = test system: Candida albicans CCM 8320 (ATCC 24433); assay: Antifungal microdilution broth (EUCAST), CA; type: cell-based; conditions: Candida albicans; read after 24 h; read-out: CA MIC
[13] = test system: Candida krusei CCM 8271 (ATCC 6258); assay: Antifungal microdilution broth (EUCAST), CK; type: cell-based; conditions: Pichia kudriavzevii; read after 24 h; read-out: CK MIC
[14] = test system: Candida parapsilosis CCM 8260 (ATCC 22019); assay: Antifungal microdilution broth (EUCAST), CP; type: cell-based; conditions: Lodderomyces parapsilosis; read after 24 h; read-out: CP MIC
[15] = test system: Candida tropicalis CCM 8264 (ATCC 750); assay: Antifungal microdilution broth (EUCAST), CT; type: cell-based; conditions: Candida tropicalis; read after 24 h; read-out: CT MIC
[16] = test system: Aspergillus fumigatus ATCC 204305; assay: Antifungal microdilution broth (EUCAST), AF; type: cell-based; conditions: Aspergillus fumigatus, ATCC204305; read after 24 h; read-out: AF MIC
[17] = test system: Aspergillus flavus CCM 8363; assay: Antifungal microdilution broth (EUCAST), AFla; type: cell-based; conditions: Aspergillus flavus, CCM8363; read after 24 h; read-out: AFla MIC
[18] = test system: Lichtheimia corymbifera CCM 8077; assay: Antifungal microdilution broth (EUCAST), LC; type: cell-based; conditions: Lichtheimia corymbifera, CCM8077; read after 24 h; read-out: LC MIC
[19] = test system: Trichophyton interdigitale CCM 8377 (ATCC 9533); assay: Antifungal microdilution broth (EUCAST), TI; type: cell-based; conditions: Trichophyton interdigitale, 72 h, read-out: TI MIC
[20] = test system: HepG2 human hepatocellular carcinoma cells; assay: In vitro HepG2 cytotoxicity (CellTiter 96); conditions: for IC50: Homo sapiens, HepG2, 24 h, read-out: HepG2 IC50, 24 h incubation, * limit = highest evaluated concentration (precipitation in medium), ** over the 1000 µM limit
[21] = test system: Klebsiella pneumoniae CCM 4415 (ATCC 10031); assay: Antibacterial microdilution broth (EUCAST), KP; conditions: read after 24 h
[22] = read after 24 h, read-out: EF MIC

Row | Structure (SMILES) | MIC [1] [µg/mL] | MIC ([2]; MABA, resazurin after 48 h) [µg/mL] | MIC [3] [µg/mL] | MIC [4] [µg/mL] | MIC [6] [µM] | MIC [7] [µM] | MIC [8] [µM] | MIC [5, 22] [µM] | MIC [9] [µM] | MIC [10] [µM] | MIC [11] [µM] | MIC [12] [µM] | MIC [13] [µM] | MIC [14] [µM] | MIC [15] [µM] | MIC [16] [µM] | MIC [17] [µM] | MIC [18] [µM] | MIC [19] [µM] | IC50 [20] [µM] | other results
1 | O=C(O)c1cn(C2CC2)c2cc(N3CCNCC3)c(F)cc2c1=O [CIP, ciprofloxacin, reference compound] | 0.25 (≈ 0.754 µM) | 0.063 (≈ 0.19 µM) | 0.016 (≈ 0.0483 µM) | 0.2 (≈ 0.604 µM) |  |  |  |  |  |  |  |  |  |  |  |  |  |  |  |  | MIC ([5]; internal quality control, no visible growth, 24 h, read-out: MIC, visual detection): 1.02 µg/mL
2 | Cc1ccc(C(=O)Nc2nccnc2C(N)=O)cc1 [Compound 4] | 7.81 (≈ 30.5 µM) | ≥ 250 | ≥ 250 | 6.25 (≈ 24.4 µM) | > 500 | > 500 | > 500 | > 500 | > 500 | > 500 | > 500 | > 500 | > 500 | > 500 | > 500 | > 500 | > 500 | > 500 | > 500 | > 100 | activity on Mtb H37Rv and both MDR strains (in words) [4]: significant activity; KP MIC [21]: > 500 µM
3 | NC(=O)c1nccnc1NC(=O)c1ccc(F)cc1 [Compound 12] | 31.2 (≈ 120 µM) | 250 (≈ 961 µM) | ≥ 500 | 50 (≈ 192 µM) | > 500 | > 500 | > 500 | > 500 | > 500 | > 500 | > 500 | > 500 | > 500 | > 500 | > 500 | > 500 | > 500 | > 500 | > 500 | > 250 | activity on Mtb H37Rv and both MDR strains (in words) [4]: significant activity; KP MIC [21]: > 500 µM
4 | NC(=O)c1nccnc1NC(=O)c1ccc(Cl)cc1 [Compound 15] | 3.91 (≈ 14.1 µM) |  | ≥ 250 | 6.25 (≈ 22.6 µM) | > 500 | > 500 | > 500 | > 500 | > 500 | > 500 | > 500 | > 125 | > 125 | > 125 | > 125 | > 125 | > 125 | > 125 | > 125 | > 100 | activity against M. smegmatis (in words) [2]: high activity; MIC ([2]; 48 h): 3.91 µg/mL (≈ 14.1 µM); activity on Mtb H37Rv and both MDR strains (in words) [4]: significant activity; KP MIC [21]: > 500 µM
5 | NC(=O)c1nccnc1NC(=O)c1ccc(Br)cc1 [Compound 18] | 1.95 (≈ 6.07 µM) | 125 (≈ 389 µM) | ≥ 250 | 6.25 (≈ 19.5 µM) | > 500 | > 500 | > 500 | > 500 | > 500 | > 500 | > 500 | > 125 | > 125 | > 125 | > 125 | > 125 | > 125 | > 125 | > 125 | > 25 | solubility in the testing medium (in words) ([20]; HepG2 cell culture medium): low solubility; KP MIC [21]: > 500 µM
6 | O=c1[nH]c(-c2ccc(Cl)cc2)nc2nccnc12 [Compound 42] | ≥ 500 | ≥ 500 | ≥ 500 |  | > 125 | > 125 | > 125 | > 125 | > 125 | > 125 | > 125 | > 125 | > 125 | > 125 | > 125 | > 125 | > 125 | > 125 | > 125 | > 250 | melting point: 306.5 to 307.9 °C; KP MIC [21]: > 125 µM
